Data published in PMC9763582, “Analyzing the postulated inhibitory effect of Manumycin A on farnesyltransferase” (Frontiers in Chemistry, 2022).

T1: C. elegans farnesyltransferase (ceFTase) (Caenorhabditis elegans, UniProt O44501+Q19752)
T1 construct: gene fntb-1; coding regions of FTα (NM_001392242.1) and FTβ (NM_001392654.1), N-terminal His-tag on β-subunit; with farnesyltransferase α-subunit (ceFNTA)
T1 sequence (Q19752 1-401): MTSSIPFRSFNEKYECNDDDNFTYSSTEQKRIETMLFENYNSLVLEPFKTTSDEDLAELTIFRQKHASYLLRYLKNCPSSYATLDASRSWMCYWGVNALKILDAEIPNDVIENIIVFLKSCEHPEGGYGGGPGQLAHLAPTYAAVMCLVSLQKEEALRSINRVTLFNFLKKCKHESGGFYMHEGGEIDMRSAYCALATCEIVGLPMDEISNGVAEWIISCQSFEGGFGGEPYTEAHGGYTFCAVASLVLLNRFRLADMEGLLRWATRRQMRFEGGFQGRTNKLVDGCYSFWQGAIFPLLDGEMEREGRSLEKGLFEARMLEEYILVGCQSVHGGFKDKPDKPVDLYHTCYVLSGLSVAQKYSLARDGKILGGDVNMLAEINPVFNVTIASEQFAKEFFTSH
T1 sequence (O44501 1-328): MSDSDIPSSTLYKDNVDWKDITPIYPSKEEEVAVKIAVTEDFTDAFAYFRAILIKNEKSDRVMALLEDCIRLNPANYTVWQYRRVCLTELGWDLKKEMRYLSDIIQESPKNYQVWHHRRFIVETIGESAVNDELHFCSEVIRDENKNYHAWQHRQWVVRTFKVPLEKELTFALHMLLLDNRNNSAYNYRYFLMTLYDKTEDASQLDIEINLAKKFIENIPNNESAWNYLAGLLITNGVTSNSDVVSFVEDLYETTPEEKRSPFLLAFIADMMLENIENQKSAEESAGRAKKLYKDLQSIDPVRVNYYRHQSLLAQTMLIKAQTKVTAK


Columns and labels:
[1] = target: T2, human farnesyltransferase (hFTase) (Homo sapiens, UniProt P49354+P49356); experiment: continuous fluorescence assay with Dansyl-GCVLS and FPP, […]°C; Ki calculated from IC50 […] (Cheng-Prusoff); assay type: biochemical
T2 construct: gene FNTB; IMAC purified FTase, FTα/FTβ heterodimer, His-tagged β-subunit; with farnesyltransferase α-subunit (FNTA)

[2] = target: T1, C. elegans farnesyltransferase (ceFTase); experiment: as above; assay type: biochemical
[3] = substrate: CC(C)=CCC/C(C)=C/CC/C(C)=C/CO[P@@](=O)(O)OP(=O)(O)O; experiment: purified protein; conditions: Zn2+ ([…] ZnCl2 in assay)

Molecule | Ki [1] | Ki [2] | Km [3]
CCCC[C@@H](C)/C=C(C)/C=C(\C)C(=O)NC1=C[C@@](O)(/C=C/C=C/C=C/C(=O)NC2=C(O)CCC2=O)[C@@H]2O[C@@H]2C1=O [Manumycin A] | 4.4 µM | 3.16 µM | –
C. elegans farnesyltransferase (ceFTase) (Caenorhabditis elegans) (protein) chain 1: MTSSIPFRSFNEKYECNDDDNFTYSSTEQKRIETMLFENYNSLVLEPFKTTSDEDLAELTIFRQKHASYLLRYLKNCPSSYATLDASRSWMCYWGVNALKILDAEIPNDVIENIIVFLKSCEHPEGGYGGGPGQLAHLAPTYAAVMCLVSLQKEEALRSINRVTLFNFLKKCKHESGGFYMHEGGEIDMRSAYCALATCEIVGLPMDEISNGVAEWIISCQSFEGGFGGEPYTEAHGGYTFCAVASLVLLNRFRLADMEGLLRWATRRQMRFEGGFQGRTNKLVDGCYSFWQGAIFPLLDGEMEREGRSLEKGLFEARMLEEYILVGCQSVHGGFKDKPDKPVDLYHTCYVLSGLSVAQKYSLARDGKILGGDVNMLAEINPVFNVTIASEQFAKEFFTSH chain 2: MSDSDIPSSTLYKDNVDWKDITPIYPSKEEEVAVKIAVTEDFTDAFAYFRAILIKNEKSDRVMALLEDCIRLNPANYTVWQYRRVCLTELGWDLKKEMRYLSDIIQESPKNYQVWHHRRFIVETIGESAVNDELHFCSEVIRDENKNYHAWQHRQWVVRTFKVPLEKELTFALHMLLLDNRNNSAYNYRYFLMTLYDKTEDASQLDIEINLAKKFIENIPNNESAWNYLAGLLITNGVTSNSDVVSFVEDLYETTPEEKRSPFLLAFIADMMLENIENQKSAEESAGRAKKLYKDLQSIDPVRVNYYRHQSLLAQTMLIKAQTKVTAK | – | – | 1.3 µM
